Laboratory results as given in publication PMC7756341, “Liposomal FRET Assay Identifies Potent Drug‐Like Inhibitors of the Ceramide Transport Protein (CERT)” (Chemistry (Weinheim an Der Bergstrasse, Germany), 2020).
Several values for one entry are separate records, joined by “and”; a condition that tells them apart may be missing. Identical values can stand only once.

System: HeLa cells
Assay: Sphingolipid content of treated HeLa cells by quantitative mass spectrometry
Assay type: cell-based
Details: for effect on total sphingomyelin: 48 hours, serum-reduced medium; for Cer16 / Cer18 / Cer20 / Cer22 / Cer24 / Cer24:1 / Cer total / S1P / SM16 / SM18 / SM20 / SM22 / SM24 / SM24:1 / SM total / Sph / ratio total SM/Cer: HeLa, 42h, single replicates; for Cer16 / Cer18 / Cer20 / Cer22 / Cer24 / Cer24:1 / Cer total / S1P / SM16 / SM18 / SM20 / SM22 / SM24 / SM24:1 / SM total / Sph: 500.000 cells per sample
Procedure: 5.2 Cellular experiment for lipidomic analysis
Hela cells were cultured in six well plates (177000 cells per well) under standard growth conditions (DMEM with 4mM L-glutamine, 10% FBS, 1% Penicillin-Streptomycin; CO2 incubator with […]
37°C, 5% CO2). […]
After incubation, […]
the adherent cells were washed twice with ice-cold PBS and harvested by treatment with trypsin.
Cells were counted using a Countess II cell counter ( Invitrogen) and adjusted to 500.000 cells per sample. Each sample was then treated as described below.
6. Details for experimental lipidomics
Cells were subjected to lipid extraction using 1.5 mL methanol/chloroform (2:1, v:v) as described. The extraction solvent contained C17-ceramide (Cer17) and C16 -d31-sphingomyelin (d31-SM16) (both Avanti Polar Lipids, Alabaster, USA) as internal standards. Chromatographic separations were achieved on a 1260 Infinity HPLC (Agilent Technologies, Waldbronn, Germany) equipped with a Poroshell 120 EC-C8 column (3.0 × 150 mm, 2.7 µm; Agilent Technologies). A mobile phase system consisting of water (solvent A) and acetonitrile/methanol (1:1, v:v; solvent B), both acidified with 0.1% formic acid, was used for gradient elution at an initial composition of 40:60 (A:B, v:v) and a flow rate of 0.5 mL/min. MS/MS analyses were carried out using a 6490 triple-quadrupole mass spectrometer (Agilent Technologies) operating in the positive electrospray ionization mode (ESI+). The following ion source parameters were set: sheath gas temperature, 375 °C; sheath gas flow, 12 L/min of nitrogen; nebulizer pressure, 30 psi; drying gas temperature, 200 °C; drying gas flow, 15 L/min of nitrogen; capillary voltage, 4000 V; nozzle voltage, 1500 V; iFunnel high pressure RF voltage, 150 V and iFunnel low pressure RF voltage, 60 V. The following mass transitions were recorded (collision energies of 25 eV for all transitions): ceramides: m/z […]
with MassHunter Software (Agilent Technologies). Significance of differences between two samples was calculated by student’s t -test. Asterisks indicate significant differences between treated and untreated samples: * p<0.05; ** p<0.01; *** p<0.005.
Table S1. Sphingolipid content of treated cells.
(1 picture or pasted object on this page, not shown here)

Cc1cc(C2=NOC(c3cc(Cl)cc(Cl)c3)(C(F)(F)F)C2)ccc1C(=O)NCC(=O)NCC(F)(F)F (stereo not drawn) [20D5, Fluralaner]
effect on total sphingomyelin (HeLa cells): dose‐dependent reduction
Cer16 (1 µM): 45,48 pmol/sample and 40,19 pmol/sample and 39,73 pmol/sample
Cer18 (1 µM): 6,03 pmol/sample and 4,12 pmol/sample and 3,84 pmol/sample
Cer20 (1 µM): 2,67 pmol/sample and 1,37 pmol/sample and 1,12 pmol/sample
Cer22 (1 µM): 11,46 pmol/sample and 9,24 pmol/sample and 9,12 pmol/sample
Cer24 (1 µM): 40,67 pmol/sample and 36,50 pmol/sample and 37,27 pmol/sample
Cer24:1 (1 µM): 46,05 pmol/sample and 40,74 pmol/sample and 40,44 pmol/sample
Cer total (1 µM): 152,37 pmol/sample and 131,71 pmol/sample and 131,97 pmol/sample
S1P (1 µM): 1,21 pmol/sample and 1,34 pmol/sample and 1,10 pmol/sample
SM16 (1 µM): 1625,68 pmol/sample and 1717,57 pmol/sample and 1686,01 pmol/sample
SM18 (1 µM): 54,98 pmol/sample and 59,04 pmol/sample and 56,68 pmol/sample
SM20 (1 µM): 18,10 pmol/sample and 18,45 pmol/sample and 17,14 pmol/sample
SM22 (1 µM): 110,98 pmol/sample and 111,56 pmol/sample and 111,04 pmol/sample
SM24 (1 µM): 197,09 pmol/sample and 206,21 pmol/sample and 199,98 pmol/sample
SM24:1 (1 µM): 621,75 pmol/sample and 662,66 pmol/sample and 645,68 pmol/sample
SM total (1 µM): 2628,58 pmol/sample and 2775,49 pmol/sample and 2716,53 pmol/sample
Sph (1 µM): 3,74 pmol/sample and 3,07 pmol/sample and 3,46 pmol/sample
ratio total SM/Cer (1 µM): 19,9 and 18,2 and 20,6
Cer16 (2.5 µM): 40,44 pmol/sample and 43,49 pmol/sample and 36,97 pmol/sample
Cer18 (2.5 µM): 4,61 pmol/sample and 4,98 pmol/sample and 3,95 pmol/sample
Cer20 (2.5 µM): 1,33 pmol/sample and 1,40 pmol/sample and 1,09 pmol/sample
Cer22 (2.5 µM): 9,74 pmol/sample and 10,99 pmol/sample and 8,69 pmol/sample
Cer24 (2.5 µM): 35,83 pmol/sample and 40,22 pmol/sample and 34,92 pmol/sample
Cer24:1 (2.5 µM): 37,47 pmol/sample and 43,87 pmol/sample and 37,54 pmol/sample
Cer total (2.5 µM): 129,42 pmol/sample and 144,94 pmol/sample and 123,16 pmol/sample
S1P (2.5 µM): 1,21 pmol/sample and 1,29 pmol/sample (2×)
SM16 (2.5 µM): 1311,55 pmol/sample and 1447,18 pmol/sample and 1450,27 pmol/sample
SM18 (2.5 µM): 48,19 pmol/sample and 50,02 pmol/sample and 51,79 pmol/sample
SM20 (2.5 µM): 16,11 pmol/sample and 17,46 pmol/sample and 16,39 pmol/sample
SM22 (2.5 µM): 98,76 pmol/sample and 109,23 pmol/sample and 102,97 pmol/sample
SM24 (2.5 µM): 179,29 pmol/sample and 202,61 pmol/sample and 193,22 pmol/sample
SM24:1 (2.5 µM): 587,13 pmol/sample and 553,18 pmol/sample and 603,33 pmol/sample
SM total (2.5 µM): 2401,78 pmol/sample and 2207,08 pmol/sample and 2429,82 pmol/sample
Sph (2.5 µM): 3,04 pmol/sample and 3,17 pmol/sample and 2,91 pmol/sample
ratio total SM/Cer (2.5 µM): 19,5 and 17,1 and 16,8
Cer16 (5 µM): 48,26 pmol/sample and 50,29 pmol/sample and 47,46 pmol/sample
Cer18 (5 µM): 5,41 pmol/sample and 5,92 pmol/sample and 5,34 pmol/sample
Cer20 (5 µM): 1,35 pmol/sample and 1,41 pmol/sample and 1,29 pmol/sample
Cer22 (5 µM): 9,51 pmol/sample and 10,83 pmol/sample and 9,59 pmol/sample
Cer24 (5 µM): 33,23 pmol/sample and 39,15 pmol/sample and 38,78 pmol/sample
Cer24:1 (5 µM): 35,26 pmol/sample and 38,24 pmol/sample and 35,25 pmol/sample
Cer total (5 µM): 133,01 pmol/sample and 145,85 pmol/sample and 137,71 pmol/sample
S1P (5 µM): 1,32 pmol/sample and 1,22 pmol/sample and 1,19 pmol/sample
SM16 (5 µM): 1128,33 pmol/sample and 1262,96 pmol/sample and 1233,63 pmol/sample
SM18 (5 µM): 43,19 pmol/sample and 47,39 pmol/sample and 44,90 pmol/sample
SM20 (5 µM): 13,45 pmol/sample and 15,19 pmol/sample and 13,75 pmol/sample
SM22 (5 µM): 74,74 pmol/sample and 85,38 pmol/sample and 82,05 pmol/sample
SM24 (5 µM): 132,70 pmol/sample and 158,23 pmol/sample and 155,99 pmol/sample
SM24:1 (5 µM): 419,73 pmol/sample and 481,61 pmol/sample and 461,72 pmol/sample
SM total (5 µM): 1812,15 pmol/sample and 2050,77 pmol/sample and 1992,04 pmol/sample
Sph (5 µM): 3,25 pmol/sample and 3,29 pmol/sample and 4,27 pmol/sample
ratio total SM/Cer (5 µM): 13,6 and 14,1 and 14,5

CCCC(=O)OCOC(=O)C1=C(C)NC(C)=C(C(=O)OC)C1c1cccc(Cl)c1Cl (stereo not drawn) [6B11, Clevidipine butyrate]
effect on SM/Cer rate (HeLa cells): dramatically increased
effect on total sphingomyelin (HeLa cells): no significant changes
Cer16 (1 µM): 35,47 pmol/sample and 30,33 pmol/sample and 32,28 pmol/sample
Cer18 (1 µM): 3,21 pmol/sample and 3,62 pmol/sample and 2,31 pmol/sample
Cer20 (1 µM): 0,82 pmol/sample and 1,87 pmol/sample and 0,75 pmol/sample
Cer22 (1 µM): 6,64 pmol/sample and 6,96 pmol/sample and 5,21 pmol/sample
Cer24 (1 µM): 21,95 pmol/sample and 20,24 pmol/sample and 18,20 pmol/sample
Cer24:1 (1 µM): 41,58 pmol/sample and 36,60 pmol/sample and 35,42 pmol/sample
Cer total (1 µM): 109,68 pmol/sample and 101,56 pmol/sample and 92,23 pmol/sample
S1P (1 µM): 1,30 pmol/sample (2×) and 1,12 pmol/sample
SM16 (1 µM): 1664,57 pmol/sample and 1753,19 pmol/sample and 1827,88 pmol/sample
SM18 (1 µM): 49,35 pmol/sample and 48,17 pmol/sample and 50,13 pmol/sample
SM20 (1 µM): 16,44 pmol/sample and 17,01 pmol/sample and 16,12 pmol/sample
SM22 (1 µM): 97,77 pmol/sample and 109,23 pmol/sample and 104,57 pmol/sample
SM24 (1 µM): 148,40 pmol/sample and 164,36 pmol/sample and 157,65 pmol/sample
SM24:1 (1 µM): 734,55 pmol/sample and 781,78 pmol/sample and 776,18 pmol/sample
SM total (1 µM): 2711,09 pmol/sample and 2873,72 pmol/sample and 2932,53 pmol/sample
Sph (1 µM): 2,93 pmol/sample and 3,14 pmol/sample and 2,69 pmol/sample
ratio total SM/Cer (1 µM): 29,4 and 26,2 and 28,9
Cer16 (2.5 µM): 31,11 pmol/sample and 34,56 pmol/sample and 32,33 pmol/sample
Cer18 (2.5 µM): 2,90 pmol/sample and 3,36 pmol/sample and 2,45 pmol/sample
Cer20 (2.5 µM): 1,10 pmol/sample and 1,04 pmol/sample and 0,67 pmol/sample
Cer22 (2.5 µM): 6,09 pmol/sample and 6,54 pmol/sample and 4,24 pmol/sample
Cer24 (2.5 µM): 19,85 pmol/sample and 19,17 pmol/sample and 13,13 pmol/sample
Cer24:1 (2.5 µM): 35,16 pmol/sample and 36,98 pmol/sample and 34,53 pmol/sample
Cer total (2.5 µM): 96,21 pmol/sample and 101,65 pmol/sample and 87,36 pmol/sample
S1P (2.5 µM): 1,11 pmol/sample (2×) and 1,10 pmol/sample
SM16 (2.5 µM): 1754,78 pmol/sample and 1844,30 pmol/sample and 1802,54 pmol/sample
SM18 (2.5 µM): 52,01 pmol/sample and 48,63 pmol/sample and 47,35 pmol/sample
SM20 (2.5 µM): 16,63 pmol/sample and 16,52 pmol/sample and 14,33 pmol/sample
SM22 (2.5 µM): 104,73 pmol/sample and 101,64 pmol/sample and 87,68 pmol/sample
SM24 (2.5 µM): 164,67 pmol/sample and 154,96 pmol/sample and 126,92 pmol/sample
SM24:1 (2.5 µM): 701,62 pmol/sample and 752,78 pmol/sample and 753,00 pmol/sample
SM total (2.5 µM): 2780,44 pmol/sample and 2845,61 pmol/sample and 2919,05 pmol/sample
Sph (2.5 µM): 3,54 pmol/sample and 2,83 pmol/sample and 2,99 pmol/sample
ratio total SM/Cer (2.5 µM): 31,8 and 29,6 and 28,7
Cer16 (5 µM): 29,66 pmol/sample and 34,26 pmol/sample and 31,66 pmol/sample
Cer18 (5 µM): 2,65 pmol/sample and 3,21 pmol/sample and 2,71 pmol/sample
Cer20 (5 µM): 0,74 pmol/sample and 0,90 pmol/sample and 0,79 pmol/sample
Cer22 (5 µM): 5,38 pmol/sample and 6,67 pmol/sample and 6,09 pmol/sample
Cer24 (5 µM): 17,46 pmol/sample and 20,37 pmol/sample and 20,18 pmol/sample
Cer24:1 (5 µM): 36,92 pmol/sample and 40,53 pmol/sample and 39,54 pmol/sample
Cer total (5 µM): 92,81 pmol/sample and 105,93 pmol/sample and 100,96 pmol/sample
S1P (5 µM): 1,11 pmol/sample and 1,25 pmol/sample and 1,08 pmol/sample
SM16 (5 µM): 1762,30 pmol/sample and 1782,59 pmol/sample and 1722,69 pmol/sample
SM18 (5 µM): 53,21 pmol/sample and 52,89 pmol/sample and 50,26 pmol/sample
SM20 (5 µM): 17,74 pmol/sample and 18,28 pmol/sample and 16,92 pmol/sample
SM22 (5 µM): 109,54 pmol/sample and 111,84 pmol/sample and 106,91 pmol/sample
SM24 (5 µM): 166,35 pmol/sample and 172,87 pmol/sample and 164,46 pmol/sample
SM24:1 (5 µM): 783,66 pmol/sample and 796,71 pmol/sample and 771,15 pmol/sample
SM total (5 µM): 2892,80 pmol/sample and 2935,19 pmol/sample and 2832,39 pmol/sample
Sph (5 µM): 2,83 pmol/sample and 2,13 pmol/sample and 3,03 pmol/sample
ratio total SM/Cer (5 µM): 31,2 and 27,7 and 28,1
